Laboratory results taken from patent US20020026053A1, “Novel 3-(substituted) -2- indolinones compounds and use thereof as inhibitors of protein kinase activity” (priority 1997, published 2002).

Key:
PDGF-R = PDGF-R Assay (cellular ELISA, U1242 cells); format: cell-based; set-up: concentration or dose not given beside the values
Method in brief: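 U1242 cells seeded in 0.5% serum, serum-starved, then exposed to compound for 2 hr at 37°C before 5–10 min ligand stimulation and lysis in HNTG. Lysate captured on receptor-antibody-coated plates; phosphotyrosine detected with polyclonal anti-pTyr, goat anti-rabbit IgG and ABTS/H2O2, A410 (ref 630 nm), versus untreated cells.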

EGFR = target: T1, EGFR (Homo sapiens, UniProt P00533); experiment: Biochemical EGFR Assay; set-up: concentration or dose not given beside the values
T1 construct: endogenous in cells; host or cells: A431 cells (lysate, captured with SUMO1 anti-EGFR antibody)
Method in brief: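 EGFR from A431 lysate was captured on anti-EGFR-coated wells and preincubated 30 min with compound (diluted 1:10 in TBS) at room temperature. After ATP/MnCl2 phosphorylation for 5 min, the reaction was stopped with EDTA. Phosphotyrosine was detected by ELISA (anti-phosphotyrosine, peroxidase conjugate, ABTS) at 410 nm.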

T1 sequence (P00533 25-1210): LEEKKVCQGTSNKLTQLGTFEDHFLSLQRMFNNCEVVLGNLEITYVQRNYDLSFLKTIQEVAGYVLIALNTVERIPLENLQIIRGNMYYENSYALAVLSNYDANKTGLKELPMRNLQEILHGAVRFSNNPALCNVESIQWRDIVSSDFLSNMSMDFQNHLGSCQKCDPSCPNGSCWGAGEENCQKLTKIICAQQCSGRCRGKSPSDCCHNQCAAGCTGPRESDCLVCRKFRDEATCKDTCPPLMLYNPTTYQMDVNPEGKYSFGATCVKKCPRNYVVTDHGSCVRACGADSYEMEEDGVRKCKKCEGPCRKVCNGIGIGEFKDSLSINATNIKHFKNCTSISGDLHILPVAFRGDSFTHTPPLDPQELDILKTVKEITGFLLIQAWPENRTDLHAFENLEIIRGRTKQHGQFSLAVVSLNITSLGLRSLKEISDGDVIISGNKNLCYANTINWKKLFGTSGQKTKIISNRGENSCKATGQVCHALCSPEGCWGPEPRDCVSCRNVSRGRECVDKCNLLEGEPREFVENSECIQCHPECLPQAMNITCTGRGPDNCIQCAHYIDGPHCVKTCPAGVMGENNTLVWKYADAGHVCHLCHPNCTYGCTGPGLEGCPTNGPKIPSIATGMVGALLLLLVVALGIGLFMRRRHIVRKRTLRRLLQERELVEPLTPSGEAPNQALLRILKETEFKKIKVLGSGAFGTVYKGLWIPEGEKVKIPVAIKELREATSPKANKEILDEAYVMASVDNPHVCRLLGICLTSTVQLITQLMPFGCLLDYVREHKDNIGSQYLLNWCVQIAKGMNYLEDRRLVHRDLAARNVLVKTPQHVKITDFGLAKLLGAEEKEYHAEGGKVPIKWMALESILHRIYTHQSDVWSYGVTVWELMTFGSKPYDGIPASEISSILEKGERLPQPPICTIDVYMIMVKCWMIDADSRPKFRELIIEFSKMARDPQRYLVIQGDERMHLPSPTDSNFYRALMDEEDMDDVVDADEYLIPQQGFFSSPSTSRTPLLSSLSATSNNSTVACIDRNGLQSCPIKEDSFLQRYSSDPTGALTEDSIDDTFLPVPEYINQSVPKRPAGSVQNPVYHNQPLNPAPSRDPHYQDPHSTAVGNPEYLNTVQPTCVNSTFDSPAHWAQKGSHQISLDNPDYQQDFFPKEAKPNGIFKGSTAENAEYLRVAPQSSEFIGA

SMILES	PDGF Kinase % Inhibition (P.119) (PDGF-R)	Biochem EGFR % Inhibition (P.167) (EGFR)
O=C1Nc2c(Br)cc(Br)cc2C1=Cc1ccccc1Cl [10736/A11]	−5.6%	−29.3%
O=C1Nc2ccc(I)cc2C1=Cc1ccc(Cl)cc1 [10736/B02]	−10.0%	−38.8%
O=C1Nc2ccc(I)cc2C1=Cc1ccccc1C(F)(F)F [10736/B03]	63.2%	−51.7%
Cc1cccc(C=C2C(=O)Nc3ccc(I)cc32)c1 [10736/B04]	11.9%	−9.0%
Cc1ccc(C=C2C(=O)Nc3ccc(I)cc32)cc1 [10736/B05]	−3.0%	14.9%
O=C1Nc2ccc(I)cc2C1=Cc1cccc(Cl)c1 [10736/B06]	20.7%	12.6%
O=C1Nc2ccc(I)cc2C1=Cc1cccc(F)c1 [10736/B07]	20.7%	8.4%
O=C1Nc2ccc(I)cc2C1=Cc1ccccc1F [10736/B08]	−0.4%	8.4%
CCc1ccc(C=C2C(=O)Nc3ccc(I)cc32)cc1 [10736/B09]	7.1%	−3.5%
COc1cccc(C=C2C(=O)Nc3ccc(I)cc32)c1 [10736/B10]	1.8%	15.6%
O=C1Nc2ccc(I)cc2C1=Cc1ccccc1Cl [10736/B11]	−15.3%	−3.7%
Cc1c(Br)ccc2c1C(=Cc1ccc(Cl)cc1)C(=O)N2 [10736/C02]	2.7%	−47.1%
Cc1c(Br)ccc2c1C(=Cc1ccccc1C(F)(F)F)C(=O)N2 [10736/C03]	25.5%	0.3%
Cc1cccc(C=C2C(=O)Nc3ccc(Br)c(C)c32)c1 [10736/C04]	8.4%	90.2%
Cc1ccc(C=C2C(=O)Nc3ccc(Br)c(C)c32)cc1 [10736/C05]	16.7%	16.8%
Cc1c(Br)ccc2c1C(=Cc1cccc(Cl)c1)C(=O)N2 [10736/C06]	26.4%	4.8%

SMILES	PDGF Kinase % Inhibition (P.119) (PDGF-R)	Biochem EGFR % Inhibition (P.167) (EGFR)
Cc1c(Br)ccc2c1C(=Cc1cccc(F)c1)C(=O)N2 [10736/C07]	14.1%	−8.1%
Cc1c(Br)ccc2c1C(=Cc1ccccc1F)C(=O)N2 [10736/C08]	1.4%	−0.5%
CCc1ccc(C=C2C(=O)Nc3ccc(Br)c(C)c32)cc1 [10736/C09]	−9.6%	4.6%
COc1cccc(C=C2C(=O)Nc3ccc(Br)c(C)c32)c1 [10736/C10]	1.4%	−0.3%
Cc1c(Br)ccc2c1C(=Cc1ccccc1Cl)C(=O)N2 [10736/C11]	0.5%	−4.5%
CNS(=O)(=O)c1ccc2c(c1)C(=Cc1ccc(Cl)cc1)C(=O)N2 [10736/D02]	−10.5%	1.8%
CNS(=O)(=O)c1ccc2c(c1)C(=Cc1ccccc1C(F)(F)F)C(=O)N2 [10736/D03]	14.5%	−3.7%
CNS(=O)(=O)c1ccc2c(c1)C(=Cc1cccc(C)c1)C(=O)N2 [10736/D04]	15.0%	24.9%
CNS(=O)(=O)c1ccc2c(c1)C(=Cc1ccc(C)cc1)C(=O)N2 [10736/D05]	3.6%	−7.9%
CNS(=O)(=O)c1ccc2c(c1)C(=Cc1cccc(Cl)c1)C(=O)N2 [10736/D06]	19.8%	29.7%
CNS(=O)(=O)c1ccc2c(c1)C(=Cc1cccc(F)c1)C(=O)N2 [10736/D07]	4.4%	47.1%
CNS(=O)(=O)c1ccc2c(c1)C(=Cc1ccccc1F)C(=O)N2 [10736/D08]	1.8%	90.9%
CCc1ccc(C=C2C(=O)Nc3ccc(S(=O)(=O)NC)cc32)cc1 [10736/D09]	−6.5%	66.8%
CNS(=O)(=O)c1ccc2c(c1)C(=Cc1cccc(OC)c1)C(=O)N2 [10736/D10]	−2.1%	10.5%
CNS(=O)(=O)c1ccc2c(c1)C(=Cc1ccccc1Cl)C(=O)N2 [10736/D11]	−4.3%	51.7%
